For 28 compounds, IC50 and EC50 results are on record in patent publication US20260001889A1, “COMPOSITIONS USEFUL FOR MODULATING SPLICING” (Skyhawk Therapeutics, Inc., priority 2022, published 2026).

A word on the IC50: it is the point on the concentration scale where inhibition reaches its midpoint. A higher IC50 goes with weaker potency. The EC50 is the concentration needed to bring the measured effect to its halfway point. A lower EC50 goes with an effect from little substance.

In assay [1] the test system is ATXN3 transcripts containing exon 4. As to the kind of experiment: ATXN3 Quantitative Splicing Assay (qPCR, E4E5 primers/probe). It counts as cell-based. Particulars: Homo sapiens, SK-N-MC cells, compounds for 24 h. An outline of the steps:
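Exon 4-containing ATXN3 transcripts are quantified by TaqMan qPCR (E4E5 primers/probe) on cell-lysate cDNA, with total ATXN3 from the E8E9 set. Source cells: human neuroblastoma SK-N-MC, exposed for 24 h to compound at 30 μM down to 0.6 nM.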
For orientation: Real-time PCR tracks product formation cycle by cycle.

The test system of a further assay is total ATXN3 protein. In words: ATXN3 Total Protein Assay (Mesoscale Discovery, SK-N-MC cells). Format: cell-based, Human. The note with it: incubation for 48 hours, MSD assay. An outline of the steps:
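Readout: MSD electrochemiluminescence immunoassay of lysates, calibrated with recombinant ATXN3 and using mouse/rabbit anti-ATXN3 antibody pair. Cells (SK-N-MC, human) were exposed for 48 h to compound doses between 30 μM and 0.6 nM.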

A further assay deals with ATXN3-HiBiT protein. As to the kind of experiment: ATXN3 Total Protein Assay (Kelly-ATXN3-HiBiT luminescence). Format: cell-based. The note with it: Kelly-ATXN3-HiBiT cells, 48 h after addition of compound. An outline of the steps: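 Endogenous ATXN3-HiBiT protein in knock-in Kelly neuroblastoma cells measured by lytic HiBiT luminescence 48 h post-compound (added 24 h after seeding 2000 cells/well). Values are fold changes relative to DMSO, with viability from a parallel CellTiter-Glo plate.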
(In general: With HiBiT, luminescence reflects the tagged protein that the partner subunit can reach.)

Molecules are shown by their SMILES.

Turning to `C[C@H](N)Cc1oc2c(NCc3cccs3)cc(Cl)nc2c1Cl` [Compound 16, 2-[(S)-2-aminopropyl]-3,5-dichloro-7-thenylamino-1-oxa-4-azaindene], the 50% inhibitory concentration (IC50) (in assay [1]; in the assay on total ATXN3 protein) was 0.01 to 100 nM in each case. In addition, the concentration for a half-maximal effect (EC50) in the assay with ATXN3-HiBiT protein was in the range of 0.01 to 100 nM.

As for `C[C@H](F)[C@H](N)Cc1oc2c(NCc3cccs3)cc(Cl)nc2c1-c1ccnn1C` [Compound 334, 2-[(2R,3S)-2-amino-3-fluorobutyl]-5-chloro-3-(1-methyl-5-pyrazolyl)-7-thenylamino-1-oxa-4-azaindene], the IC50 (in assay [1]; in the assay on total ATXN3 protein) was 10000 to 40000 nM each time. This compound also returned an EC50 with ATXN3-HiBiT protein of 10000 to 40000 nM.

In the case of `N[C@H](Cc1oc2c(NCc3ccco3)cc(Cl)nc2c1Br)CC(F)(F)F` [Compound 26, 2-[(R)-2-amino-4,4,4-trifluorobutyl]-3-bromo-5-chloro-7-(furfurylamino)-1-oxa-4-azaindene], the IC50 (in assay [1]; in the assay on total ATXN3 protein) was 101 to 500 nM each time. In the assay on ATXN3-HiBiT protein, this compound gave an EC50 of 501 to 5000 nM.

Take `C[C@H](F)[C@H](N)Cc1oc2c(NCc3c(F)cccc3F)cc(Cl)nc2c1Br` [Compound 153, 2-[(2R,3S)-2-amino-3-fluorobutyl]-3-bromo-5-chloro-7-{[(2,6-difluorophenyl)methyl]amino}-1-oxa-4-azaindene]: the values for the IC50 (in assay [1]; with total ATXN3 protein) were 10000 to 40000 nM and 5000 to 10000 nM, respectively. In the assay with ATXN3-HiBiT protein, this compound had a 50% effective concentration (EC50) of 10000 to 40000 nM.

On to `C[C@H](N)Cc1oc2c(NCc3cccs3)cc(Cl)nc2c1-c1cscn1` [Compound 263, 2-[(S)-2-aminopropyl]-5-chloro-7-thenylamino-3-(1,3-thiazol-4-yl)-1-oxa-4-azaindene], for which the IC50 (in assay [1]; in the assay on total ATXN3 protein) was 501 to 5000 nM each time. In the assay on ATXN3-HiBiT protein, this compound yielded an EC50 of 501 to 5000 nM.

As for `N[C@H](Cc1oc2c(NCc3cccs3)cc(Cl)nc2c1Br)[C@@H]1CCOC1` (single isomer, unassigned) [Compound 100], the values for the IC50 (in assay [1]; with total ATXN3 protein) were 501 to 5000 nM and 5000 to 10000 nM, respectively. The same compound displayed a 50% effective concentration (EC50) with ATXN3-HiBiT protein of 10000 to 40000 nM.

Consider `C[C@H](N)Cc1oc2c(NCc3cccs3)cc(Cl)nc2c1-c1ncc[nH]1` [Compound 313, 2-[(2S)-2-aminopropyl]-5-chloro-3-(1H-imidazol-2-yl)-N-(thiophen-2-ylmethyl)furo[3,2-b]pyridin-7-amine], for which the values for the IC50 (in assay [1]; in the assay on total ATXN3 protein) were 10000 to 40000 nM and 5000 to 10000 nM, respectively. The same compound returned a 50% effective concentration (EC50) with ATXN3-HiBiT protein of 10000 to 40000 nM.

Regarding `NC1(Cc2oc3c(NCc4cccs4)cc(Cl)nc3c2Br)CC1` [Compound 227, 2-[(1-aminocyclopropyl)methyl]-3-bromo-5-chloro-N-(thiophen-2-ylmethyl)furo[3,2-b]pyridin-7-amine], the IC50 (in assay [1]; with total ATXN3 protein) was 501 to 5000 nM each time. In addition, the EC50 with ATXN3-HiBiT protein was in the range of 501 to 5000 nM.

Take `C[C@H](N)Cc1oc2c(NCc3cccs3)cc(C(=O)O)nc2c1Br` [Compound 167, 2-[(2S)-2-aminopropyl]-3-bromo-7-[(thiophen-2-ylmethyl)amino]furo[3,2-b]pyridine-5-carboxylic acid]: the concentration for half-maximal inhibition (IC50) (in assay [1]; in the assay on total ATXN3 protein) was 10000 to 40000 nM throughout. Moreover, the EC50 in the assay with ATXN3-HiBiT protein lay in the range of 10000 to 40000 nM.

For the compound `Cc1c(C[C@@H](N)[C@H](C)F)oc2c(NCc3ccc(F)s3)cc(Cl)nc12` [Compound 105, 2-[(2R,3S)-2-amino-3-fluorobutyl]-5-chloro-7-{[(5-fluoro-2-thienyl)methyl]amino}-3-methyl-1-oxa-4-azaindene], the IC50 in assay [1] is 101 to 500 nM; in the assay on total ATXN3 protein, 501 to 5000 nM. The EC50 in the assay on ATXN3-HiBiT protein lay within 501 to 5000 nM.

With `N[C@@H](CF)Cc1oc2c(NCc3cccs3)cc(Cl)nc2c1Br` [Compound 58, 2-[(R)-2-amino-3-fluoropropyl]-3-bromo-5-chloro-7-thenylamino-1-oxa-4-azaindene], the IC50 (in assay [1]; in the assay with total ATXN3 protein) was 0.01 to 100 nM in each case. This compound also yielded an EC50 in the assay on ATXN3-HiBiT protein of 0.01 to 100 nM.

Regarding `N[C@@H](Cc1oc2c(NCc3cccs3)cc(Cl)nc2c1Br)[C@@H]1CCOC1` (single isomer, unassigned) [Compound 214], the IC50 (in assay [1]; with total ATXN3 protein) was 501 to 5000 nM throughout. The compound further yielded a concentration for a half-maximal effect (EC50) in the assay with ATXN3-HiBiT protein of 501 to 5000 nM.

As for `N[C@@H](COC1CC1)Cc1oc2c(NCc3cccs3)cc(Cl)nc2c1Br` [Compound 115, 2-[(R)-2-amino-3-cyclopropoxypropyl]-3-bromo-5-chloro-7-thenylamino-1-oxa-4-azaindene], the IC50 (in assay [1]; in the assay with total ATXN3 protein) was 101 to 500 nM in each case. Moreover, the EC50 in the assay with ATXN3-HiBiT protein was 101 to 500 nM.

With `C=Cc1c(C[C@H](C)N)oc2c(NCc3cccs3)cc(Cl)nc12` [Compound 194, 2-[(S)-2-aminopropyl]-5-chloro-7-thenylamino-3-vinyl-1-oxa-4-azaindene], the half-maximal inhibitory concentration (IC50) (in assay [1]; in the assay on total ATXN3 protein) was 501 to 5000 nM throughout. Moreover, the EC50 with ATXN3-HiBiT protein was 101 to 500 nM.

Take `C[C@H](F)[C@H](N)Cc1oc2c(NCc3cccs3)cc(C#N)nc2c1Br` [Compound 103, 2-[(2R,3S)-2-amino-3-fluorobutyl]-3-bromo-7-thenylamino-1-oxa-4-aza-5-indenecarbonitrile]: the 50% inhibitory concentration (IC50) (in assay [1]; in the assay on total ATXN3 protein) was 101 to 500 nM throughout. In addition, in the assay on ATXN3-HiBiT protein, the half-maximal effective concentration (EC50) was 101 to 500 nM.

Consider `CC#C[C@H](N)Cc1oc2c(NCc3cccs3)cc(Cl)nc2c1Br` [Compound 132, 2-[(R)-2-amino-3-pentynyl]-3-bromo-5-chloro-7-thenylamino-1-oxa-4-azaindene], for which the IC50 lay within 501 to 5000 nM in assay [1] and 101 to 500 nM with total ATXN3 protein. The compound further had an EC50 with ATXN3-HiBiT protein of 501 to 5000 nM.

`C[C@@H](F)[C@H](N)Cc1oc2c(NCc3ccc(F)s3)cc(Cl)nc2c1Br` [Compound 95, 2-[(2R,3R)-2-amino-3-fluorobutyl]-3-bromo-5-chloro-7-{[(5-fluoro-2-thienyl)methyl]amino}-1-oxa-4-azaindene]: the concentration for half-maximal inhibition (IC50) (in assay [1]; with total ATXN3 protein) was 501 to 5000 nM throughout. Besides, the EC50 in the assay on ATXN3-HiBiT protein lay in the range of 501 to 5000 nM.

For the compound `N[C@H](Cc1oc2c(NCc3cccs3)cc(Cl)nc2c1Br)C1CC1` [Compound 134, 2-[(R)-2-amino-2-cyclopropylethyl]-3-bromo-5-chloro-7-thenylamino-1-oxa-4-azaindene], the half-maximal inhibitory concentration (IC50) (in assay [1]; in the assay on total ATXN3 protein) was 501 to 5000 nM throughout. Besides, the 50% effective concentration (EC50) in the assay on ATXN3-HiBiT protein lay in the range of 501 to 5000 nM.

In the case of `C[C@@H](F)[C@H](N)Cc1oc2c(NCc3ccccc3)cc(Cl)nc2c1Br` [Compound 93, 2-[(2R,3R)-2-amino-3-fluorobutyl]-7-benzylamino-3-bromo-5-chloro-1-oxa-4-azaindene], the IC50 (in assay [1]; in the assay with total ATXN3 protein) was 501 to 5000 nM throughout. Further, the concentration giving a half-maximal response (EC50) in the assay with ATXN3-HiBiT protein is 501 to 5000 nM.

For `C#Cc1cc(NCc2cccs2)c2oc(C[C@@H](N)C3CC(F)(F)C3)c(C#C)c2n1` [Compound 178, 2-[(R)-2-amino-2-(3,3-difluorocyclobutyl)ethyl]-3,5-diethynyl-7-thenylamino-1-oxa-4-azaindene], the IC50 (in assay [1]; in the assay on total ATXN3 protein) was 501 to 5000 nM in each case. The compound further registered a concentration giving a half-maximal response (EC50) with ATXN3-HiBiT protein of 501 to 5000 nM.

In the case of `C/C=C\c1c(C[C@H](C)N)oc2c(NCc3cccs3)cc(Cl)nc12` [Compound 254, 2-[(S)-2-aminopropyl]-3-[(Z)-1-propenyl]-5-chloro-7-thenylamino-1-oxa-4-azaindene], the IC50 (in assay [1]; with total ATXN3 protein) was 501 to 5000 nM in each case. The compound also came in with an EC50 in the assay on ATXN3-HiBiT protein of 501 to 5000 nM.

As for `C=C(C)c1c(C[C@H](C)N)oc2c(NCc3cccs3)cc(Cl)nc12` [Compound 252, 2-[(S)-2-aminopropyl]-5-chloro-3-isopropenyl-7-thenylamino-1-oxa-4-azaindene], the 50% inhibitory concentration (IC50) was in the range of 10000 to 40000 nM in assay [1] and 5000 to 10000 nM in the assay on total ATXN3 protein. The compound also yielded an EC50 in the assay with ATXN3-HiBiT protein of 501 to 5000 nM.

With `COC[C@H](N)Cc1oc2c(NCc3ccccc3)cc(Cl)nc2c1Cl` [Compound 51, 2-[(R)-2-amino-3-methoxypropyl]-7-benzylamino-3,5-dichloro-1-oxa-4-azaindene], the half-inhibitory concentration (IC50) (in assay [1]; with total ATXN3 protein) was 101 to 500 nM each time. In addition, the EC50 in the assay with ATXN3-HiBiT protein lay in the range of 101 to 500 nM.

As to `Cc1c(C[C@H](C)N)oc2c(NCc3cccs3)cc(Cl)nc12` [Compound 11, 2-[(S)-2-aminopropyl]-5-chloro-3-methyl-7-thenylamino-1-oxa-4-azaindene], the IC50 (in assay [1]; in the assay with total ATXN3 protein) was 101 to 500 nM throughout. The compound further registered an EC50 in the assay on ATXN3-HiBiT protein of 0.01 to 100 nM.

On to `C[C@H](N)Cc1oc2c(NCc3cccs3)cc(Cl)nc2c1-c1cccs1` [Compound 256, 2-[(S)-2-aminopropyl]-5-chloro-7-thenylamino-3-(2-thienyl)-1-oxa-4-azaindene], for which the values for the IC50 (in assay [1]; in the assay on total ATXN3 protein) were 10000 to 40000 nM and 5000 to 10000 nM, respectively. In the assay on ATXN3-HiBiT protein, this compound had an EC50 of 10000 to 40000 nM.

Take `C#Cc1c(C[C@@H](N)CC(F)(F)F)oc2c(NCc3ccco3)cc(Cl)nc12` [Compound 120, 2-[(R)-2-amino-4,4,4-trifluorobutyl]-5-chloro-3-ethynyl-7-(furfurylamino)-1-oxa-4-azaindene]: the IC50 (in assay [1]; in the assay with total ATXN3 protein) was 101 to 500 nM each time. In the assay with ATXN3-HiBiT protein, this compound showed an EC50 of 501 to 5000 nM.

On to `C#Cc1cc(NCc2cccs2)c2oc(C[C@H](C)N)c(C#C)c2n1` [Compound 162, 2-[(S)-2-aminopropyl]-3,5-diethynyl-7-thenylamino-1-oxa-4-azaindene], for which the IC50 (in assay [1]; in the assay with total ATXN3 protein) was 0.01 to 100 nM each time. In the assay with ATXN3-HiBiT protein, this compound displayed an EC50 of 101 to 500 nM.

For the compound `N[C@@H](CO)C(F)(F)c1oc2c(NCc3cccs3)cc(Cl)nc2c1Cl` [Compound 190, (S)-2-amino-3-(3,5-dichloro-7-thenylamino-1-oxa-4-aza-2-indenyl)-3,3-difluoro-1-propanol], the IC50 (in assay [1]; with total ATXN3 protein) was 501 to 5000 nM throughout. The 50% effective concentration (EC50) in the assay on ATXN3-HiBiT protein lay within 501 to 5000 nM.
